Results from patent US20150307938A1, “METHOD TO IDENTIFY A NOVEL CLASS OF IMMUNOLOGIC ADJUVANTS” (Lancell, L.L.C., priority 2011, published 2015).

Tested on: skin
Assay: Affymetrix microarray of skin, DBP-4 hr and analogs vs. untreated; gene selection by log-2 fold change, Wilcoxon, Kendall tau (Tables 8, 9)
Assay type: in vivo, mouse
Details: for Kendall: Kendall tau, expression vs. outcome

In the case of CCCCOC(=O)c1ccccc1C(=O)OCCCC [DBP, dibutylphthalate], the Wilcoxon (gene #557 Il10ra NM_008348_at, DBP-4 hr vs. untreated) is reported as “No”, the Kendall (gene #557 Il10ra NM_008348_at) is reported as “Yes” and the Wilcoxon (gene #558 Il7 NM_008371_at, DBP-4 hr vs. untreated) is reported as “No”. The Kendall (gene #558 Il7 NM_008371_at) was “Yes”, the Wilcoxon (gene #559 Kif3a NM_008443_at, DBP-4 hr vs. untreated) was “No” and the Kendall (gene #559 Kif3a NM_008443_at) was “Yes”. The Wilcoxon (gene #560 Lmo2 NM_008505_at, DBP-4 hr vs. untreated) was “No”, the Kendall (gene #560 Lmo2 NM_008505_at) was “Yes” and the Wilcoxon (gene #561 Mcl1 NM_008562_at, DBP-4 hr vs. untreated) was “No”. For the same molecule, the Kendall (gene #561 Mcl1 NM_008562_at) was “Yes”, the Wilcoxon (gene #562 Meox2 NM_008584_at, DBP-4 hr vs. untreated) was “No” and the Kendall (gene #562 Meox2 NM_008584_at) was “Yes”. The Wilcoxon (gene #563 Mtf1 NM_008636_at, DBP-4 hr vs. untreated) was “No”, the Kendall (gene #563 Mtf1 NM_008636_at) was “Yes” and the Wilcoxon (gene #564 Mut NM_008650_at, DBP-4 hr vs. untreated) was “No”. For the same molecule, the Kendall (gene #564 Mut NM_008650_at) was “Yes”, the Wilcoxon (gene #565 Ppp1r15a NM_008654_at, DBP-4 hr vs. untreated) was “No” and the Kendall (gene #565 Ppp1r15a NM_008654_at) was “Yes”. The Wilcoxon (gene #566 Ncf4 NM_008677_at, DBP-4 hr vs. untreated) was “No”, the Kendall (gene #566 Ncf4 NM_008677_at) was “Yes” and the Wilcoxon (gene #567 Nos3 NM_008713_at, DBP-4 hr vs. untreated) was “No”. For the same molecule, the Kendall (gene #567 Nos3 NM_008713_at) was “Yes”, the Wilcoxon (gene #568 Pigf NM_008838_at, DBP-4 hr vs. untreated) was “No” and the Kendall (gene #568 Pigf NM_008838_at) was “Yes”. For the same molecule, the Wilcoxon (gene #569 Map2k3 NM_008928_at, DBP-4 hr vs. untreated) was “No”, the Kendall (gene #569 Map2k3 NM_008928_at) was “Yes” and the Wilcoxon (gene #570 Rad50 NM_009012_at, DBP-4 hr vs. untreated) was “No”. For the same molecule, the Kendall (gene #570 Rad50 NM_009012_at) was “Yes”, the Wilcoxon (gene #571 Ralgds NM_009058_at, DBP-4 hr vs. untreated) was “No” and the Kendall (gene #571 Ralgds NM_009058_at) was “Yes”. The Wilcoxon (gene #572 Hltf NM_009210_at, DBP-4 hr vs. untreated) was “No”, the Kendall (gene #572 Hltf NM_009210_at) was “Yes” and the Wilcoxon (gene #573 Serpina3n NM_009252_at, DBP-4 hr vs. untreated) was “No”. For the same molecule, the Kendall (gene #573 Serpina3n NM_009252_at) was “Yes”, the Wilcoxon (gene #574 Tnfaip1 NM_009395_at, DBP-4 hr vs. untreated) was “No” and the Kendall (gene #574 Tnfaip1 NM_009395_at) was “Yes”. For the same molecule, the Wilcoxon (gene #575 Tuba4a NM_009447_at, DBP-4 hr vs. untreated) was “No”, the Kendall (gene #575 Tuba4a NM_009447_at) was “Yes” and the Wilcoxon (gene #576 Zfp101 NM_009542_at, DBP-4 hr vs. untreated) was “No”. The Kendall (gene #576 Zfp101 NM_009542_at) was “Yes”, the Wilcoxon (gene #577 Parp2 NM_009632_at, DBP-4 hr vs. untreated) was “No” and the Kendall (gene #577 Parp2 NM_009632_at) was “Yes”. For the same molecule, the Wilcoxon (gene #578 Aldh2 NM_009656_at, DBP-4 hr vs. untreated) was “No”, the Kendall (gene #578 Aldh2 NM_009656_at) was “Yes” and the Wilcoxon (gene #579 Cebpb NM_009883_at, DBP-4 hr vs. untreated) was “No”. The Kendall (gene #579 Cebpb NM_009883_at) was “Yes”, the Wilcoxon (gene #580 Bcar1 NM_009954_at, DBP-4 hr vs. untreated) was “No” and the Kendall (gene #580 Bcar1 NM_009954_at) was “Yes”. The Wilcoxon (gene #581 Eci1 NM_010023_at, DBP-4 hr vs. untreated) was “No”, the Kendall (gene #581 Eci1 NM_010023_at) was “Yes” and the Wilcoxon (gene #582 Ddt NM_010027_at, DBP-4 hr vs. untreated) was “No”. For the same molecule, the Kendall (gene #582 Ddt NM_010027_at) was “Yes”, the Wilcoxon (gene #583 Egr2 NM_010118_at, DBP-4 hr vs. untreated) was “No” and the Kendall (gene #583 Egr2 NM_010118_at) was “Yes”. For the same molecule, the Wilcoxon (gene #584 F2r NM_010169_at, DBP-4 hr vs. untreated) was “No”, the Kendall (gene #584 F2r NM_010169_at) was “Yes” and the “Wilcoxon: Abhd6” value (gene Abhd6, NM_025341_at, DBP-4 hr vs. untreated) was “No”. For the same molecule, the “Kendall: Abhd6” value (gene Abhd6, NM_025341_at, gene expression vs. output) was “Yes”, the “Wilcoxon: Acad8” value (gene Acad8, NM_025862_at, DBP-4 hr vs. untreated) was “No” and the “Kendall: Acad8” value (gene Acad8, NM_025862_at, gene expression vs. output) was “Yes”. The “Wilcoxon: Ak2” value (gene Ak2, NM_016895_at, DBP-4 hr vs. untreated) was “No”, the “Kendall: Ak2” value (gene Ak2, NM_016895_at, gene expression vs. output) was “Yes” and the “Wilcoxon: Akr1e1” value (gene Akr1e1, NM_018859_at, DBP-4 hr vs. untreated) was “No”. The “Kendall: Akr1e1” value (gene Akr1e1, NM_018859_at, gene expression vs. output) was “Yes”, the “Wilcoxon: Avpr1a” value (gene Avpr1a, NM_016847_at, DBP-4 hr vs. untreated) was “No” and the “Kendall: Avpr1a” value (gene Avpr1a, NM_016847_at, gene expression vs. output) was “Yes”. The “Wilcoxon: B4galt1” value (gene B4galt1, NM_022305_at, DBP-4 hr vs. untreated) was “No”, the “Kendall: B4galt1” value (gene B4galt1, NM_022305_at, gene expression vs. output) was “Yes” and the “Wilcoxon: Bphl” value (gene Bphl, NM_026512_at, DBP-4 hr vs. untreated) was “No”. The “Kendall: Bphl” value (gene Bphl, NM_026512_at, gene expression vs. output) was “Yes”, the “Wilcoxon: Cdkl2” value (gene Cdkl2, NM_016912_at, DBP-4 hr vs. untreated) was “No” and the “Kendall: Cdkl2” value (gene Cdkl2, NM_016912_at, gene expression vs. output) was “Yes”. For the same molecule, the “Wilcoxon: Cep70” value (gene Cep70, NM_023873_at, DBP-4 hr vs. untreated) was “No”, the “Kendall: Cep70” value (gene Cep70, NM_023873_at, gene expression vs. output) was “Yes” and the “Wilcoxon: Cirh1a” value (gene Cirh1a, NM_011574_at, DBP-4 hr vs. untreated) was “No”. The “Kendall: Cirh1a” value (gene Cirh1a, NM_011574_at, gene expression vs. output) was “Yes”, the “Wilcoxon: Clec14a” value (gene Clec14a, NM_025809_at, DBP-4 hr vs. untreated) was “No” and the “Kendall: Clec14a” value (gene Clec14a, NM_025809_at, gene expression vs. output) was “Yes”. For the same molecule, the “Wilcoxon: Commd4” value (gene Commd4, NM_025417_at, DBP-4 hr vs. untreated) was “No”, the “Kendall: Commd4” value (gene Commd4, NM_025417_at, gene expression vs. output) was “Yes” and the “Wilcoxon: Cr1l” value (gene Cr1l, NM_013499_at, DBP-4 hr vs. untreated) was “No”. The “Kendall: Cr1l” value (gene Cr1l, NM_013499_at, gene expression vs. output) was “Yes”, the “Wilcoxon: Cyth1” value (gene Cyth1, NM_011180_at, DBP-4 hr vs. untreated) was “No” and the “Kendall: Cyth1” value (gene Cyth1, NM_011180_at, gene expression vs. output) was “Yes”. The “Wilcoxon: D16Ertd472e” value (gene D16Ertd472e, NM_025967_at, DBP-4 hr vs. untreated) was “No”, the “Kendall: D16Ertd472e” value (gene D16Ertd472e, NM_025967_at, gene expression vs. output) was “Yes” and the “Wilcoxon: Dcxr” value (gene Dcxr, NM_026428_at, DBP-4 hr vs. untreated) was “No”. The “Kendall: Dcxr” value (gene Dcxr, NM_026428_at, gene expression vs. output) was “Yes” and the “Wilcoxon: Dda1” value (gene Dda1, NM_025600_at, DBP-4 hr vs. untreated) was “No”.
